In patent US9018214B2, “Bicyclic heterocycle compounds and their uses in therapy” (Astex Therapeutics Limited, priority 2011, dated 2015):
pEC50, pIC50: −log10 of the molar value. Where a name gives a salt, the structure may show the parent alone. Read-outs that look alike come from different tables or passages of the source.

Key:
[1] = system: EVSA-T (human breast carcinoma); experiment: Anti-proliferative activity, Alamar Blue assay, EVSA-T; format: cell-based; settings: Homo sapiens
[2] = target: BIR3 domain of human cIAP-1 (residues 267-363) (Homo sapiens (Human), UniProt Q13490); experiment: cIAP-1 in vitro competitive displacement binding assay (fluorescence polarization; Probe A AVPIK(5&6FAM)-amide or Probe B AbuRPFK(5&6FAM)-amide); settings: for inhibition at […]: 3 h, read-out: IC50 or PI cIAP1: PI
[3] = target: BIR3 domain of human XIAP (residues 252-350) (Homo sapiens (Human), UniProt P98170); experiment: XIAP in vitro competitive displacement binding assay (fluorescence polarization); settings: for pIC50: read-out: IC50 or PI Xiap: IC50; for inhibition at 0.04 µM: 1 h, read-out: IC50 or PI Xiap: PI
[4] = EVSA-T, 72 h, read-out: EVSA-T prolif (EC50)
[5] = EVSA-T, 72 hours, Alamar Blue, read-out: EVSA-T prolif (EC50)
[6] = Probe B AbuRPFK(5&6FAM)-amide, read-out: IC50 or PI cIAP1: IC50

Structure (SMILES) | pEC50 [1, 5] | inhibition at […] ([2]; Probe B, @ 0.012 μM) [%] | pIC50 [3] | further results
C[C@@H]1CN(CC(=O)N2CC(C)(C)c3cnc(Cc4ccc(F)cc4F)cc32)[C@@H](CN2CCC(F)(F)C2)CN1 [Example 208, 1-{6-[(2,4-Difluorophenyl)methyl]-3,3-dimethyl-1H,2H,3H-pyrrolo[3,2-c]pyridin-1-yl}-2-[(2R,5R)-2-[(3,3-difluoropyrrolidin-1-yl)methyl]-5-methylpiperazin-1-yl]ethan-1-one dihydrochloride] |  |  | 7.19 | pEC50 [1, 4]: 8.40; inhibition at […] [2]: 99%
CCCC(F)(F)c1cnc2c(c1)N(C(=O)CN1C[C@@H](C)NC[C@@H]1CN1CCOC[C@H]1C)CC2(C)C [Example 260, 1-[6-(1,1-Difluoro-butyl)-3,3-dimethyl-2,3-dihydro-pyrrolo[3,2-b]pyridin-1-yl]-2-[(2R,5R)-5-methyl-2-((R)-3-methyl-morpholin-4-ylmethyl)-piperazin-1-yl]-ethanone dihydrochloride] | 8.36 |  |  | inhibition at […] [2]: 90%; inhibition at 0.04 µM [3]: 73%
C[C@@H]1CN(CC(=O)N2C[C@@](C)(c3ccccc3)c3ccc(C#N)cc32)[C@@H](C(=O)N2CCOCC2)CN1 [Example 152, (3S)-3-Methyl-1-{2-[(2R,5R)-5-methyl-2-[(morpholin-4-yl)carbonyl]piperazin-1-yl]acetyl}-3-phenyl-2,3-dihydro-1H-indole-6-carbonitrile] | 5.43 |  | 7.19 | pIC50 [2, 6]: 6.96
C[C@@H]1CN(CC(=O)N2CC(C)(C)c3cnc(Cc4ccc(F)cc4F)cc32)[C@@H](CN2CC[C@H](F)C2)CN1 [Example 202, 1-{6-[(2,4-Difluorophenyl)methyl]-3,3-dimethyl-1H,2H,3H-pyrrolo[3,2-c]pyridin-1-yl}-2-[(2R,5R)-2-{[(3S)-3-fluoropyrrolidin-1-yl]methyl}-5-methylpiperazin-1-yl]ethan-1-one diydrochloride] |  | 88 | 7.11 | pEC50 [1, 4]: 8.68
C[C@@H]1CN(CC(=O)N2CC(C)(C)c3ncc(C(F)(F)CC4CC4)cc32)[C@@H](CN2CCOCC2)CN1 [Example 231, 1-[6-(2-Cyclopropyl-1,1-difluoroethyl)-3,3-dimethyl-1H,2H,3H-pyrrolo[3,2-b]pyridin-1-yl]-2-[(2R,5R)-5-methyl-2-(morpholin-4-ylmethyl)piperazin-1-yl]ethan-1-one dihydrochloride] |  |  | 7.19 | pEC50 [1, 4]: 7.17; pIC50 [2]: > 6.00; pIC50 ([2]; read-out: IC50 or PI cIAP1: IC50): 8.02
C[C@@H]1CN(CC(=O)N2CC(C)(C)c3ncc(Cc4ccc(F)cc4F)cc32)[C@@H](CN2CC[C@@H](F)C2)CN1 [Example 205, 1-{6-[(2,4-Difluorophenyl)methyl]-3,3-dimethyl-1H,2H,3H-pyrrolo[3,2-b]pyridin-1-yl}-2-[(2R,5R)-2-{[(3R)-3-fluoropyrrolidin-1-yl]methyl]-5-methylpiperazin-1-yl]ethan-1-one hydrochloride] | 7.72 | 97 | 7.00 | 
C[C@@H]1CN(CC(=O)N2CC(C)(C)c3ncc(C(F)(F)c4ccccc4)cc32)[C@@H](CN2CCOCC2)CN1 [Example 232, 1-{6-[Difluoro(phenyl)methyl]-3,3-dimethyl-1H,2H,3H-pyrrolo[3,2-b]pyridin-1-yl}-2-[(2R,5R)-5-methyl-2-(morpholin-4-ylmethyl)piperazin-1-yl]ethan-1-one dihydrochloride] | 7.44 |  |  | inhibition at […] [2]: 77%; inhibition at 0.04 µM [3]: 48%

Further lines, with some results ahead:

pEC50 [1, 5] | inhibition at […] ([2]; Probe B, @ 0.012 μM) [%] | Structure (SMILES) | pIC50 [3] | further results
7.02 | 78 | C[C@@H]1CN(CC(=O)N2CC(C)(C)c3cnc(Cc4ccccc4)cc32)[C@@H](Cn2cc(F)cn2)CN1 [Example 157, 1-{6-Benzyl-3,3-dimethyl-1H,2H,3H-pyrrolo[3,2-c]pyridin-1-yl}-2-[(2R,5R)-2-[(4-fluoro-1H-pyrazol-1-yl)methyl]-5-methylpiperazin-1-yl]ethan-1-one hydrochloride] | 7.19 | 
8.77 | 97 | Cc1nc(C)n(C[C@H]2CN[C@H](C)CN2CC(=O)N2CC(C)(C)c3cnc(Cc4ccc(F)cc4F)cc32)n1 [Example 206, 1-{6-[(2,4-Difluorophenyl)methyl]-3,3-dimethyl-1H,2H,3H-pyrrolo[3,2-c]pyridin-1-yl}-2-[(2R,5R)-2-[(dimethyl-1H-1,2,4-triazol-1-yl)methyl]-5-methylpiperazin-1-yl]ethan-1-one hydrochloride] | 7.10 | 
5.40 |  | C[C@@H]1CN(CC(=O)N2C[C@](C)(c3ccccc3)c3ccc(C#N)cc32)[C@@H](C(=O)N2CCOCC2)CN1 [Example 153, (3R)-3-Methyl-1-{2-[(2R,5R)-5-methyl-2-[(morpholin-4-yl)carbonyl]piperazin-1-yl]acetyl}-3-phenyl-2,3-dihydro-1H-indole-6-carbonitrile] |  | pIC50 [2, 6]: 6.80; inhibition at 0.04 µM ([3]; @ 0.04 μM): 54%
7.57 | 78 | CCCC(F)(F)c1cc2c(cn1)C(C)(C)CN2C(=O)CN1C[C@@H](C)NC[C@@H]1CN1CCCC1=O [Example 227, 1-{[(2R,5R)-1-{2-[6-(1,1-Difluorobutyl)-3,3-dimethyl-1H,2H,3H-pyrrolo[3,2-c]pyridin-1-yl]-2-oxoethyl}-5-methylpiperazin-2-yl]methyl}pyrrolidin-2-one hydrochloride] |  | inhibition at 0.04 µM ([3]; @ 0.04 μM): 60%
5.64 |  | CNC(=O)[C@H]1CN[C@H](C)CN1CC(=O)N1CC(C)(C)c2cc(F)c(S(=O)(=O)c3ccccc3)cc21 [Example 56, (2R,5R)-1-[2-(6-Benzenesulfonyl-5-fluoro-3,3-dimethyl-2,3-dihydro-indol-1-yl)-2-oxo-ethyl]-5-methyl-piperazine-2-carboxylic acid methylamide hydrochloride salt] | 6.96 | pEC50 ([1]; EVSA-T cell line, 72 hours, Alamar Blue, read-out: EC50, inhibition of cell growth): > 5.00; pIC50 [2]: > 6.00; pIC50 [2, 6]: 6.89
7.77 | 94 | C[C@@H]1CN(CC(=O)N2CC(C)(C)c3cnc(Cc4ccc(F)cc4F)cc32)[C@@H](CN2CCOCC2=O)CN1 [Example 191, 4-{[(2R,5R)-1-(2-{6-[(2,4-Difluorophenyl)methyl]-3,3-dimethyl-1H,2H,3H-pyrrolo[3,2-c]pyridin-1-yl}-2-oxoethyl)-5-methylpiperazin-2-yl]methyl}morpholin-3-one hydrochloride] | 7.33 | 
6.25 |  | COC[C@H]1CN[C@H](C)CN1CC(=O)N1CC(C)(C)c2cnc(Oc3ccccc3)cc21 [Example 74, 1-(3,3-Dimethyl-6-phenoxy-2,3-dihydro-pyrrolo[3,2-c]pyridin-1-yl)-2-((2R,5R)-2-methoxymethyl-5-methyl-piperazin-1-yl)-ethanone hydrochloride salt] | 6.41 | pIC50 [2, 6]: 7.00
7.32 | 72 | CC(C)CC(F)(F)c1cc2c(cn1)C(C)(C)CN2C(=O)CN1C[C@@H](C)NC[C@@H]1CN1CCCC1=O [Example 225, 1-{[(2R,5R)-1-{2-[6-(1,1-Difluoro-3-methylbutyl)-3,3-dimethyl-1H,2H,3H-pyrrolo[3,2-c]pyridin-1-yl]-2-oxoethyl}-5-methylpiperazin-2-yl]methyl}pyrrolidin-2-one hydrochloride] |  | inhibition at 0.04 µM ([3]; @ 0.04 μM): 62%
